# From article PMC5341572, “Self-Assembly and Anti-Amyloid Cytotoxicity Activity of Amyloid beta Peptide Derivatives” (Scientific Reports, 2017)
# Several values for one entry are separate records, joined by “and”; a condition that tells them apart may be missing. Identical values can stand only once. Entries after “also recorded” stand apart in the source; their conditions may differ.
# Experiments:
# [1] = molecular target: T1, Aβ(1–42) (Homo sapiens, UniProt P05067); assay: CD spectroscopy of Aβ(1–42) secondary structure on addition of peptide; settings: Aβ(1–42):peptide molar ratio 1:1.2 for peptide 1 and 1:1.6 for peptide 2; Tris buffer pH 7.4
# T1 construct: purchased American Peptide Inc. (Sunnyvale, USA)
# T1 sequence (P05067 672-713): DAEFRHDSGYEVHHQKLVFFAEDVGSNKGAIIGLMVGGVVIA
# Protocol: HFIP was then evaporated under a slow stream of N2.
# CD spectra were recorded using a Chirascan spectropolarimeter (Applied Photophysics, UK). Peptide solutions were placed in a cover slip cuvette (1 × 10^−2 or 0.1 mm thick), spectra presented being with absorbance A < 2 at any measured point with a 0.5 nm step, 1 nm bandwidth, and 1 s collection time per step. The CD signal from the background was subtracted from the CD data of the sample solutions. […] CD experiments were performed using a Quartz cuvette with 1mm path length.
# [2] = ESI mass spectrometry of peptide oligomerisation with and without HFIP; format: physicochemical
# Protocol: Samples were diluted to 0.029 wt % peptide in both H2O and HFIP:H2O (1:9; v/v). ESI mass spectra were acquired in positive ion mode on a Synapt G2-Si instrument (Waters Corporation, Wilmslow, UK). The employed Z-spray ESI source (Waters Corporation, Wilmslow, UK) was operated at 1.8 kV and the ESI sample solutions were infused at 10 μL/min using a KD Scientific syringe pump (KD Scientific Inc., Holliston, USA). The desolvation and source temperature were 150 °C and 80 °C, respectively, and the cone voltage was set to 40 V. ESI mass spectra were acquired in triplicate in sensitivity mode with the exception of higher resolution mass spectra, which were acquired once in resolution mode with ion mobility separation enabled. For the latter, wave velocity and wave height were set to 650 m/s and 40 V, respectively, and the helium and nitrogen flow rates were 180 and 90 mL/min, respectively. The acquired data was converted to mzML format using the msconvert tool from the ProteoWizard software package. In-house developed software based on the pymzML software library[62] was used to extract the integrated isotopomer signal intensities of interest from the converted data files. The integrated ion signal intensities of the monomer (SM) and all oligomers (SO) were summed for each acquired spectrum to determine the total ion signal intensity of the analysed peptide species (ST):
# The relative extent of oligomerisation (EO) was determined by dividing the integrated ion signal intensities of the oligomers (SO) by the total ion signal intensity of the analysed peptide (ST): […]
# [3] = tested on: SH-SY5Y neuroblastoma cells; assay: MTS neurotoxicity assay with SH-SY5Y cells; format: cell-based; settings: 24 h
# Protocol: SH-SY5Y neuroblastoma cells were maintained in a 1:1 ratio of Ham’s F12 and Dulbecco’s Modified Eagle Medium with 10% foetal calf serum and penicillin/streptomycin at 37 °C and 5% CO2. At 85–95% confluence the cells were detached from their growth substrate using trypsin and the growth medium was removed following centrifugation of the cells at 500xg for five minutes. The cells were re-suspended in a serum-free medium (Optimem with penicillin/streptomycin) and distributed at 20,000 cells per well in a 96-well plate then incubated at 37 °C, 5% CO2 for a further 24 hours. […] Cells were incubated for a further 24 hours as above and then assayed for cell survival using an MTS based assay (CellTiter 96 AQueous One Solution Cell Proliferation Assay from Promega).
# [4] = ANS fluorescence assay for critical aggregation concentration (cac); format: physicochemical; settings: discontinuity in concentration-dependent ANS fluorescence; 74 μM ANS solution, λex 356 nm, spectra 400-670 nm
# Protocol: 8-anilo-1-naphthalenesulfonic acid (ANS) and thioflavin T (ThT) fluorescence were used to locate the critical aggregation concentration (cac). Spectra were recorded with a Varian Cary Eclipse fluorescence spectrometer with samples in 4 mm inner width quartz cuvettes. The ANS fluorophore is a probe sensitive to the hydrophobicity of its surrounding environment, making it suitable to determine the cac. ANS assays were performed measuring spectra from 400 to 670 nm (λex = 356 nm), using a 74 μM ANS solution to solubilize the peptide. ThT fluorescence depends on the formation of amyloid-like structures[36][37] (β-sheet fibrils) and is used for amyloid fibril-forming peptides. For the ThT assay, the spectra were recorded from 460 to 600 nm using an excitation wavelength of λex = 440 nm, and the peptide was dissolved in a 5.0 × 10^−3 wt % ThT solution.
# [5] = tested on: primary rat cortical neurons; assay: MTS neurotoxicity assay with primary neurons; format: cell-based; settings: final Aβ 20 μM, 20 h
# Protocol: Neuronal cultures were obtained from E16 rat embryos as described[63] with modifications. Briefly, brain cortical tissue was dissected free of meninges and suspended in 0.5 ml of Ca^2+ and Mg^2+ –free Hank’s balanced solution (Gibco). Tissue was then incubated with 4 ml of 0.25% trypsin in a 37 °C water bath for 20 min with agitation. After digestion, tissue was centrifuged at 1000 rpm for 2 min, suspended in DMEM (Gibco) containing 10% fetal calf serum (FCS) (Internegocios) and incubated at 37 °C for 10 min. The pellet was washed with DMEM 10% FCS and allowed to rest for 10 min. Medium was replaced with 1 ml Neurobasal medium (Gibco) and triturated with a 10 ml plastic pipette. […]
# Aliquots were dried under a gentle stream of N2 and re-suspended in 20 mM Tris-HCl, pH 7.4, containing 50 mM NaCl (working buffer). […] Cell viability was measured using a (3-(4, 5-dimethylthiazol-2-yl)-5-(3-carboxymethoxyphenyl)-2-(4-sulfophenyl)-2H-tetrazolium) (MTS) reduction assay. Twenty μl of MTS solution containing phenazine ethyl sulfate were added to wells, incubated for 1 h and absorbance was measured at 490 nm. Viability was expressed as the O.D. relative to neurons treated with working buffer alone. […] Data of three MTS assays were analyzed by one-way ANOVA and Bonferroni post hoc test with Graph Pad Prism v. […]
# [6] = peptide to Aβ(1–42) ratio 1:2 (2.5 μM peptide, 5 μM Aβ)
# [7] = peptide to Aβ(1–42) ratio 1:5 (1 μM peptide, 5 μM Aβ)
# [8] = peptide to Aβ(1–42) ratio 1:20 (0.25 μM peptide, 5 μM Aβ)
Compound,β-sheet minimum (216 nm) in CD spectrum of Aβ(1–42) upon addition of peptide [1],aggregation state n of self-assemblies (oligomers) seen by ESI MS ([2]; 0.029 wt% peptide),"relative extent of oligomerisation (Eo)H2O ([2]; 0.029 wt% peptide in H2O, positive-ion ESI MS, oligomer signal / total peptide signal, spectra in triplicate)","relative extent of oligomerisation (Eo)HFIP ([2]; 0.029 wt% peptide in HFIP:H2O (1:9 v/v), positive-ion ESI MS, oligomer signal / total peptide signal, spectra in triplicate)","effect on Aβ(1–42) cytotoxicity, in words [3, 6]","effect on Aβ(1–42) cytotoxicity, in words [3, 7]","effect on Aβ(1–42) cytotoxicity, in words [3, 8]","critical aggregation concentration (cac), ANS assay (hydrophobic collapse) [4]","effect on viability of Aβ(1–42)-treated neurons ([5]; Aβ:peptide 1:1 (equimolarity), co-incubated 72 h with 100 μM Aβ(1–42))","improvement of viability of Aβ(1–42)-treated neurons ([5]; Aβ:peptide molar ratio 1:1.5, co-incubated 72 h, p < 0.05)","effect of peptide alone on cells, in words ([3]; 2.5 μM peptide in the absence of Aβ(1–42))","effect on Aβ(1–42) cytotoxicity, in words ([3]; peptide to Aβ(1–42) ratio 1:2 (2.5 μM peptide, 5 μM Aβ), listed as Peptide 2)"
"CC(C)C[C@H](NC(=O)[C@@H](N)CCCCN)C(=O)N[C@H](C(=O)N[C@@H](Cc1ccccc1)C(=O)N[C@@H](Cc1ccccc1)C(N)=O)C(C)C [peptide 1, NH2-KLVFF-CONH2]",significantly reduced,≤ 7,0.040 ± 0.002,0.046 ± 0.002,block the cytotoxic effect,not very effective; also recorded: no protective effect,not very effective; also recorded: no protective effect,1.00 ± 5 × 10^−2 wt% and ~ 1 wt%,no effect,~ 70%,–,–
"CC(C)C[C@H](NC(=O)[C@@H](N)CCCCNC(=O)OC(C)(C)C)C(=O)N[C@H](C(=O)N[C@@H](Cc1ccccc1)C(=O)N[C@@H](Cc1ccccc1)C(N)=O)C(C)C [peptide 2, NH2-K(Boc)LVFF-CONH2]",–,–,–,–,block the cytotoxic effect,positive effect,positive effect,–,–,–,negative effect,rescues the cells
